Numbers after ± are expanded uncertainties.
Legend:
[1] = molar enthalpy of vaporization or sublimation; conditions: 298.15 K; Liquid; Static calorimetry
[2] = molar heat capacity at constant pressure; conditions: 300.6 K; 101.33 kPa; Liquid; Drop calorimetry

CCn1ccnc1 [1-ethyl-1H-imidazole]
molar enthalpy [1]: 13.8 ± 0.237 kcal/mol

CCCCn1ccnc1 [1-butylimidazole]
molar enthalpy [1]: 15.3 ± 0.153 kcal/mol

CCCCCCCCn1ccnc1 [1-octylimidazole]
molar enthalpy [1]: 19.4 ± 0.335 kcal/mol | molar heat capacity at constant pressure [2]: 382.21 ± 23 J/K/mol

Source: the NIST ThermoML archive (doi:10.1016/j.jct.2014.08.020)
